Paper PMC7143535, “Synthesis, Pharmacological and Structural Characterization of Novel Conopressins from Conus miliaris” (Marine Drugs, 2020)
Residues, ends and D or L forms follow the SMILES beside them.

Assays:
[1] = target: T1, human oxytocin receptor (hOTR) (Homo sapiens, UniProt P30559); experiment: cell-based; type: cell-based
T1 construct: host or cells: COS-1
T1 sequence (P30559 1-389): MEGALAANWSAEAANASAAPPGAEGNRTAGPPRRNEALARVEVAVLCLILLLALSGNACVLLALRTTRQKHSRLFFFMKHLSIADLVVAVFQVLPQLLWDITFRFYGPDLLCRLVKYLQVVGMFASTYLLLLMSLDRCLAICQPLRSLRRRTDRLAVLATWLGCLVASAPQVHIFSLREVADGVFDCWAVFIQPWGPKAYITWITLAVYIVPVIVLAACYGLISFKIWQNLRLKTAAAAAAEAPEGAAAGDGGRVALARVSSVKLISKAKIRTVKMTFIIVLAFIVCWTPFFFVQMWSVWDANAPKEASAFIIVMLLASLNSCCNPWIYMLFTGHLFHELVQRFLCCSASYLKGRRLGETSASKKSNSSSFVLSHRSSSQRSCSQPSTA

[2] = target: T2, human vasopressin2 receptor (hV2R) (Homo sapiens, UniProt P30518); experiment: cell-based
T2 construct: host or cells: COS-1

[3] = system: zebrafish vasopressin1-a2 receptor (ZF V1a2R); type: cell-based, zebrafish (Danio rerio)
[4] = target: T3, human vasopressin-1b receptor (hV1bR) (Homo sapiens, UniProt P47901); experiment: cell-based; type: cell-based
T3 construct: host or cells: COS-1
T3 sequence (P47901 1-424): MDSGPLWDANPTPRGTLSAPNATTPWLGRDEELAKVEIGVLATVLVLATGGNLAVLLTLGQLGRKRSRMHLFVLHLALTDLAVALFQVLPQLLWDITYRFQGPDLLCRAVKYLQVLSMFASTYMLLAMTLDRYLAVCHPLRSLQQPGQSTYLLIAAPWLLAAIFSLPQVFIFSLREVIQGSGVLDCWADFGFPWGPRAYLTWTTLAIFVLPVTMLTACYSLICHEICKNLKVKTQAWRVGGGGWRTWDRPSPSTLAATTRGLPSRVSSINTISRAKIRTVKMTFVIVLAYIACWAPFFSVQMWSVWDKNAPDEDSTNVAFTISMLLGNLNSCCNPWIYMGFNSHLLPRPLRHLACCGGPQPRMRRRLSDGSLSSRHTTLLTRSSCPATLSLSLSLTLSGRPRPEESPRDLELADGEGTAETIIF

[5] = system: zebrafish vasopressin2 receptor (ZF V2R); type: cell-based, zebrafish (Danio rerio); conditions: for EC50: read-out: Mean EC50 ZF V2R
[6] = target: T4, zebrafish oxytocin/isotocin receptor (ZF oxy/isoR) (Danio rerio, UniProt E4W699); experiment: cell-based; type: cell-based
T4 construct: host or cells: COS-1
T4 sequence (E4W699 1-388): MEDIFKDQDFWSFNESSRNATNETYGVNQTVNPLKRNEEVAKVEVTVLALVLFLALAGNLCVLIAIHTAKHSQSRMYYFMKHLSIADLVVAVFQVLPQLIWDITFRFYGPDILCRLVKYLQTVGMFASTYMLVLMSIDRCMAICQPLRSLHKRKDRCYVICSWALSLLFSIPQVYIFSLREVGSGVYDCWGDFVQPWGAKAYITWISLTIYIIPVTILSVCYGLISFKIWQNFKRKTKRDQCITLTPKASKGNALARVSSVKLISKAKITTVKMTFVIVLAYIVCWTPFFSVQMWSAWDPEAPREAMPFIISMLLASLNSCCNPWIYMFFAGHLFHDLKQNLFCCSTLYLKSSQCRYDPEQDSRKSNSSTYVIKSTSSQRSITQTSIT

[7] = target: T5, human vasopressin-1a receptor (hV1aR) (Homo sapiens, UniProt P37288); experiment: cell-based
T5 construct: host or cells: COS-1

[8] = target: zebrafish vasopressin1-a1 receptor (ZF V1a1R); type: cell-based, zebrafish (Danio rerio)

T5 sequence (P37288 whole entry): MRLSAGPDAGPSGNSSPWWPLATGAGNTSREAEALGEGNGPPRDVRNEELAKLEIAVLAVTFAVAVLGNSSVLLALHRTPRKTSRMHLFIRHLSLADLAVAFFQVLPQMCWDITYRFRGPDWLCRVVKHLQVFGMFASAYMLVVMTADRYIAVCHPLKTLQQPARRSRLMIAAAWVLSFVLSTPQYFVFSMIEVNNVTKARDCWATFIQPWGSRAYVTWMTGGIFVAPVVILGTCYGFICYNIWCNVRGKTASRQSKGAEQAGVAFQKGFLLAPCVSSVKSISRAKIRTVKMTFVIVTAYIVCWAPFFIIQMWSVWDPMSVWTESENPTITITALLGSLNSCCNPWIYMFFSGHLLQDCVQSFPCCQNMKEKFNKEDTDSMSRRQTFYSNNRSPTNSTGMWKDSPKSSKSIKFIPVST
T2 sequence (P30518 whole entry): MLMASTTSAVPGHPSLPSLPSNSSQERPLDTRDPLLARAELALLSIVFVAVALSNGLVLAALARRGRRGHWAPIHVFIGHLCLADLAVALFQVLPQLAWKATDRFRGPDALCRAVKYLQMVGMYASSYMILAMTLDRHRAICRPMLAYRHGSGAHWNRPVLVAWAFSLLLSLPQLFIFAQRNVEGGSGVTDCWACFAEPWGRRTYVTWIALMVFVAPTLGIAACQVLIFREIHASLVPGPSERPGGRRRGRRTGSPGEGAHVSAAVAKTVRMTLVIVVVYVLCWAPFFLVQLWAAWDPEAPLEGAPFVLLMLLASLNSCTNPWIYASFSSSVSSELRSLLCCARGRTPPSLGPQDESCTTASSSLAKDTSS

SMILES | response of control at hOTR (partial agonist) [1] [%] | EC50 [2] [µM] | Selectivity hV2R [2] | Selectivity ZF V1a2R [3] | response of control at ZF V1a2R (partial agonist) [3] [%] | EC50 [4] [µM] | Selectivity hV1bR [4] | Selectivity ZF V2R [5] | Selectivity ZF oxy [6] | response of control at ZF oxy/isoR (partial agonist) [6] [%] | EC50 [7] [µM] | Selectivity hV1aR [7] | EC50 [8] [nM] | Selectivity ZF V1a1R [8] | EC50 [1] [µM] | EC50 [3] [µM] | response of control at hV1b (weak and partial agonist) [4] [%] | EC50 [5] [nM] | EC50 [6] [µM]
CC[C@H](C)[C@@H]1NC(=O)[C@H](Cc2ccccc2)NC(=O)[C@@H](N)CSSC[C@@H](C(=O)N2CCC[C@H]2C(=O)N[C@@H](CCCCN)C(=O)NCC(N)=O)NC(=O)[C@H](CC(N)=O)NC(=O)[C@H](CCCNC(=N)N)NC1=O [Con-G, conopressin-G] (HELM PEPTIDE1{C.F.I.R.N.C.P.K.G.[am]}$PEPTIDE1,PEPTIDE1,1:R3-6:R3$$$V2.0) | 28 | 0.3 | ZF V1a1R (x42.9) > ZF V1a2R (x10.3) > hV1bR (x8.8) > ZF V2R (x7.5) > hV1aR (x3.7) > hV2R (x1.5) > ZF oxy (x1.3) > hOTR | ZF V1a1R (x42.9) > ZF V1a2R (x10.3) > hV1bR (x8.8) > ZF V2R (x7.5) > hV1aR (x3.7) > hV2R (x1.5) > ZF oxy (x1.3) > hOTR | 69 | 0.052 | ZF V1a1R (x42.9) > ZF V1a2R (x10.3) > hV1bR (x8.8) > ZF V2R (x7.5) > hV1aR (x3.7) > hV2R (x1.5) > ZF oxy (x1.3) > hOTR | ZF V1a1R (x42.9) > ZF V1a2R (x10.3) > hV1bR (x8.8) > ZF V2R (x7.5) > hV1aR (x3.7) > hV2R (x1.5) > ZF oxy (x1.3) > hOTR | ZF V1a1R (x42.9) > ZF V1a2R (x10.3) > hV1bR (x8.8) > ZF V2R (x7.5) > hV1aR (x3.7) > hV2R (x1.5) > ZF oxy (x1.3) > hOTR | 62 | 0.123 | ZF V1a1R (x42.9) > ZF V1a2R (x10.3) > hV1bR (x8.8) > ZF V2R (x7.5) > hV1aR (x3.7) > hV2R (x1.5) > ZF oxy (x1.3) > hOTR | 10 | ZF V1a1R (x42.9) > ZF V1a2R (x10.3) > hV1bR (x8.8) > ZF V2R (x7.5) > hV1aR (x3.7) > hV2R (x1.5) > ZF oxy (x1.3) > hOTR |  |  |  |  | 
NC(=O)C[C@@H]1NC(=O)CNC(=O)[C@@H]2CCCN2C(=O)[C@H](Cc2ccccc2)NC(=O)[C@@H](N)CSSC[C@@H](C(=O)N2CCC[C@H]2C(=O)N[C@@H](CC(=O)O)C(=O)N[C@@H](CO)C(N)=O)NC1=O [Con-M1am, conopressin-M1] (HELM PEPTIDE1{C.F.P.G.N.C.P.D.S.[am]}$PEPTIDE1,PEPTIDE1,1:R3-6:R3$$$V2.0) |  | > 100 |  |  |  | 38.2 |  |  |  |  | > 100 |  |  |  | > 100 | > 100 | 26 | > 100000 | > 100
CC(C)C[C@@H]1NC(=O)[C@H](Cc2ccccc2)NC(=O)[C@@H](N)CSSC[C@@H](C(=O)N2CCC[C@H]2C(=O)N[C@@H](CC(=O)O)C(=O)N[C@@H](CO)C(N)=O)NC(=O)[C@H](CC(N)=O)NC(=O)CNC1=O [Con-M2am, conopressin-M2] (HELM PEPTIDE1{C.F.L.G.N.C.P.D.S.[am]}$PEPTIDE1,PEPTIDE1,1:R3-6:R3$$$V2.0) |  | > 100 |  |  |  | > 100 |  |  |  |  | > 100 |  | > 100000 |  | > 100 | > 100 |  | 1720 | > 100
